Earlier results as cited in patent publication EP2143418A1, “Antiperspirant compositions” (Unilever PLC, priority 2008, dated 2010).

Tested on: Staphylococcus epidermidis
Settings: 80% or greater reduction in growth of inoculum, 16 to 24 hours at 37°C

| Structure (SMILES) | MIC |
| --- | --- |
| CCO [ethanol] | greater than 1 mg.ml^-1 |
| CC(C)=CCCC(C)=CCCC(C)=CCO [farnesol, 3,7,11-trimethyldodeca-2,6,10-trienol] | ca. 25 µg.ml^-1 |
| Oc1cc(Cl)ccc1Oc1ccc(Cl)cc1Cl [triclosan, 2',4,4'-trichloro,2-hydroxy-diphenyl ether] | 0.01 to 10 µg/mL |
